Results on three compounds are retold here after PMC3914206.

What all share (format): binding
Details in all cases: Compound Concentration 10 µM

Assay [1] addresses T1, panel of 442 kinases (Homo sapiens, UniProt Q14164).
T1 construct: purchased KINOMEscan
T1 sequence (Q14164 1-716): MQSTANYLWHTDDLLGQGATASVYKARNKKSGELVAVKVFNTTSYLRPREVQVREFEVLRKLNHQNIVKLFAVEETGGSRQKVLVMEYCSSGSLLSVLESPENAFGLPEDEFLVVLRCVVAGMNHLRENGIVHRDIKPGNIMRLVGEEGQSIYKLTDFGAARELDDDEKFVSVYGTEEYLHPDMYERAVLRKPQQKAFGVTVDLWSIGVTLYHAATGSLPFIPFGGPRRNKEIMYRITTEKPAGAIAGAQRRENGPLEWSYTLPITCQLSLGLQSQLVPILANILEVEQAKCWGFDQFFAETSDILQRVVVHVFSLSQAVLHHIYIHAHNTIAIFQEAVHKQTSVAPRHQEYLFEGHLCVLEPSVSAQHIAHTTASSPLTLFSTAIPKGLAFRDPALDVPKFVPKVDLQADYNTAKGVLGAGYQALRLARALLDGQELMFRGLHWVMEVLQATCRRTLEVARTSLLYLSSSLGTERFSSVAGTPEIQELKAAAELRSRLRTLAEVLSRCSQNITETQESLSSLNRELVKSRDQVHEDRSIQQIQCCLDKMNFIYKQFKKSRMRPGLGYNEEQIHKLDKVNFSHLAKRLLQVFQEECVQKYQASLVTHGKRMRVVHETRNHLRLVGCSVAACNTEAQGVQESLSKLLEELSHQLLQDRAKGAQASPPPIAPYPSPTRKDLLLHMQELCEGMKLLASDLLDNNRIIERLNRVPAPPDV
The source says: (§1) We assessed the selectivity of members of this scaffold using the KINOMEscan methodology across a near comprehensive panel of 442 kinases [[18,27]].

Assay [2] has as its target T2, panel of 442 kinases (Homo sapiens, UniProt Q8TDX7).
T2 construct: purchased KINOMEscan
Excerpt: as §1

The target in assay [3] is T3, panel of 442 kinases (Homo sapiens, UniProt Q16539).
T3 construct: purchased KINOMEscan
Excerpt: as §1

Structures are written as SMILES.

T2 sequence (Q8TDX7 whole entry): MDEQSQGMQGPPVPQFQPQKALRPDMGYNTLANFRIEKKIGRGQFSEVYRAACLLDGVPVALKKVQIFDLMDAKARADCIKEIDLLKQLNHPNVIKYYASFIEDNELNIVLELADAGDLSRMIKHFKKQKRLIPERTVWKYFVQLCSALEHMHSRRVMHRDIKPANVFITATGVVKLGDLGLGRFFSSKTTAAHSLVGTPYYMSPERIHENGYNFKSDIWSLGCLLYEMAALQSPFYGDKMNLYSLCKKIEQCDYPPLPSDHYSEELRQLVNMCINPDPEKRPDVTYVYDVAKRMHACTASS
T3 sequence (Q16539 whole entry): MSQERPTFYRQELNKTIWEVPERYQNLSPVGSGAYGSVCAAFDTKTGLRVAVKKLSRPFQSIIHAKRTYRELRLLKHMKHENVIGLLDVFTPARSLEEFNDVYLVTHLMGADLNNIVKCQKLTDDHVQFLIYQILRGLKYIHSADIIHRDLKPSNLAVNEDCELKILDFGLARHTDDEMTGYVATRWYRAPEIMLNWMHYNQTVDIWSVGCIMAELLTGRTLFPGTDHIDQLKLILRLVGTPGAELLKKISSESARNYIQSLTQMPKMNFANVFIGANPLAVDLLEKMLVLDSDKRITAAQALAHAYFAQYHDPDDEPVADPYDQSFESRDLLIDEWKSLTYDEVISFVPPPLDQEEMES

`COc1cc(C(=O)N2CCC(N3CCN(C)CC3)CC2)ccc1Nc1ncc2c(n1)N(C1CCCC1)c1ccccc1C(=O)N2C` [Compound 25, 11-cyclopentyl-2-((2-methoxy-4-(4-(4-methylpiperazin-1-yl)piperidine-1-carbonyl)phenyl)amino)-5-methyl-5H-benzo[e]pyrimido[5,4-b][1,4]diazepin-6(11H)-one]: the “KINOMEscan: IKK-epsilon” value at panel of 442 kinases [1] is 100. For the same compound, the “KINOMEscan: NEK7” value on panel of 442 kinases [2] was 100. The “KINOMEscan: p38-alpha” value on panel of 442 kinases [3] worked out at 99.

As for `COc1cc(C(=O)N2CCC(N3CCN(C)CC3)CC2)ccc1Nc1ncc2c(n1)N(C)c1ccccc1C(=O)N2C` [15 (LRRK2-IN-1)], on panel of 442 kinases [1], the “KINOMEscan: IKK-epsilon” value came to 96. The “KINOMEscan: NEK7” value on panel of 442 kinases [2] is 100. For the same compound, at panel of 442 kinases [3], the “KINOMEscan: p38-alpha” value turned out to be 87.

As for `CCOc1cc(C(=O)N2CCC(N3CCN(C)CC3)CC2)ccc1Nc1ncc2c(n1)N(C1CCCC1)c1ccccc1C(=O)N2C` [Compound 26], the “KINOMEscan: IKK-epsilon” value at panel of 442 kinases [1] is reported as 100. Besides, on panel of 442 kinases [2], the “KINOMEscan: NEK7” value is reported as 100. For the same compound, the “KINOMEscan: p38-alpha” value on panel of 442 kinases [3] amounted to 94.
